Laboratory results: ChEMBL document CHEMBL5724914, “Linking interpersonal differences in gut microbiota composition and drug biotransformation activity” (2024)

Legend:
[1] = human gut metagenome, 24 h, 2 µM
[2] = (§1) The drug is tested on Z-003 corresponding to pig gut metagenome with ENA study accession number: PRJEB37062 and ENA sample accession number: ERS12561803 for biotransformation under anaerobic condition. The drug concentrations were measured over 9 timepoints collected between 0 and 24 hours of incubation by liquid-chromatography-coupled mass spectrometry (LC–MS); details: 2 µM
[3] = human gut metagenome, 24 h, 2 µM; remark: listed apart in the source
[4] = as §1, with “Z-008” for “Z-003”, “to” for “to pig gut”, “ERS12561808” for “ERS12561803”; details: 2 µM
[5] = human gut metagenome, 24 h, 2 µM; remark: listed apart in the source
[6] = human gut metagenome, 24 h, 2 µM; remark: listed apart in the source
[7] = as §1, with “WLS-350” for “Z-003”, “human” for “pig”, “ERS12561789” for “ERS12561803”; details: 2 µM
[8] = human gut metagenome, 24 h, 2 µM; remark: listed apart in the source
[9] = as §1, with “WLS-086” for “Z-003”, “human” for “pig”, “ERS12561752” for “ERS12561803”; details: 2 µM
[10] = human gut metagenome, 24 h, 2 µM; remark: listed apart in the source
[11] = human gut metagenome, 24 h, 2 µM; remark: listed apart in the source
[12] = as §1, with “Z-007” for “Z-003”, “rat” for “pig”, “ERS12561807” for “ERS12561803”; details: 2 µM
[13] = human gut metagenome, 24 h, 2 µM; remark: listed apart in the source
[14] = human gut metagenome, 24 h, 2 µM; remark: listed apart in the source
[15] = as §1, with “WLS-069” for “Z-003”, “human” for “pig”, “ERS12561748” for “ERS12561803”; details: 2 µM
[16] = as §1, with “Z-012” for “Z-003”, “to” for “to pig gut”, “ERS12561812” for “ERS12561803”; details: 2 µM
[17] = as §1, with “Z-024” for “Z-003”, “ERS12561823” for “ERS12561803”; details: 2 µM
[18] = human gut metagenome, 24 h, 2 µM; remark: listed apart in the source
[19] = as §1, with “Z-023” for “Z-003”, “to” for “to pig gut”, “ERS12561822” for “ERS12561803”; details: 2 µM
Note: call rule not given here.

Row | SMILES | Bacterial Biotransformation [1] | Bacterial Biotransformation [2] | Bacterial Biotransformation [3] | Bacterial Biotransformation [4] | Bacterial Biotransformation [5] | Bacterial Biotransformation [6] | Bacterial Biotransformation [7] | Bacterial Biotransformation [8] | Bacterial Biotransformation [9] | Bacterial Biotransformation [10] | Bacterial Biotransformation [11] | Bacterial Biotransformation [12] | Bacterial Biotransformation [13] | Bacterial Biotransformation [14] | Bacterial Biotransformation [15] | Bacterial Biotransformation [16] | Bacterial Biotransformation [17] | Bacterial Biotransformation [18] | Bacterial Biotransformation [19]
1 | CCC1(c2ccc(N)cc2)CCC(=O)NC1=O (configuration not stated) [AMINOGLUTETHIMIDE] | Compound NOT metabolized | Compound NOT metabolized | Compound NOT metabolized | Compound NOT metabolized | Compound NOT metabolized | Compound NOT metabolized | Compound NOT metabolized | Compound NOT metabolized | Compound NOT metabolized | Compound NOT metabolized | Compound NOT metabolized | Compound NOT metabolized | Compound NOT metabolized | Compound NOT metabolized | Compound NOT metabolized | Compound NOT metabolized | Compound metabolized | Compound NOT metabolized | –
2 | CN1C(=O)CCS(=O)(=O)C1c1ccc(Cl)cc1 (configuration not stated) [CHLORMEZANONE] | Compound NOT metabolized | Compound NOT metabolized | Compound NOT metabolized | Compound NOT metabolized | Compound NOT metabolized | Compound metabolized | Compound NOT metabolized | Compound NOT metabolized | Compound metabolized | Compound NOT metabolized | Compound NOT metabolized | Compound NOT metabolized | Compound metabolized | Compound NOT metabolized | Compound NOT metabolized | Compound NOT metabolized | Compound NOT metabolized | Compound NOT metabolized | Compound NOT metabolized
3 | CC(=O)O[C@]1(C(C)=O)CC[C@H]2[C@@H]3C=C(Cl)C4=CC(=O)[C@@H]5C[C@@H]5[C@]4(C)[C@H]3CC[C@@]21C [CYPROTERONE ACETATE] | Compound metabolized | Compound metabolized | Compound metabolized | – | Compound metabolized | Compound metabolized | Compound metabolized | Compound NOT metabolized | Compound metabolized | Compound metabolized | Compound metabolized | – | Compound metabolized | Compound metabolized | Compound metabolized | – | – | Compound NOT metabolized | Compound metabolized
4 | CN1C[C@H](C(=O)N[C@]2(C)O[C@@]3(O)[C@@H]4CCCN4C(=O)[C@H](Cc4ccccc4)N3C2=O)C=C2c3cccc4[nH]cc(c34)C[C@H]21.CN1C[C@H](C(=O)N[C@]2(C)O[C@@]3(O)[C@@H]4CCCN4C(=O)[C@H](Cc4ccccc4)N3C2=O)C=C2c3cccc4[nH]cc(c34)C[C@H]21.O=C(O)C(O)C(O)C(=O)O [ERGOTAMINE TARTRATE] | Compound metabolized | – | Compound NOT metabolized | Compound NOT metabolized | Compound metabolized | Compound metabolized | Compound metabolized | Compound metabolized | Compound metabolized | Compound metabolized | Compound metabolized | Compound NOT metabolized | Compound metabolized | Compound metabolized | Compound metabolized | – | – | Compound metabolized | –
5 | COC(=O)C1=C(C)NC(C)=C(C(=O)OC(C)C)C1c1cccc2nonc12 (configuration not stated) [ISRADIPINE] | Compound NOT metabolized | Compound metabolized | Compound NOT metabolized | – | Compound metabolized | Compound metabolized | Compound metabolized | Compound NOT metabolized | Compound metabolized | Compound metabolized | Compound NOT metabolized | – | Compound metabolized | Compound metabolized | Compound metabolized | – | – | Compound NOT metabolized | –
6 | CN(C(=O)CN(CCO)CC(=O)N(C)C(C)(C)Cc1ccccc1)C(C)(C)Cc1ccccc1 [OXETHAZAINE] | Compound metabolized | – | Compound NOT metabolized | – | Compound metabolized | Compound metabolized | Compound metabolized | Compound metabolized | Compound metabolized | Compound metabolized | Compound metabolized | – | Compound metabolized | Compound metabolized | Compound metabolized | – | – | Compound metabolized | –
7 | Cc1nc2n(c(=O)c1CCN1CCC(c3noc4cc(F)ccc34)CC1)CCCC2O (configuration not stated) [PALIPERIDONE] | Compound metabolized | Compound NOT metabolized | Compound metabolized | Compound NOT metabolized | Compound metabolized | Compound metabolized | Compound metabolized | Compound metabolized | Compound metabolized | Compound metabolized | Compound metabolized | – | Compound metabolized | Compound metabolized | Compound metabolized | – | Compound metabolized | Compound metabolized | Compound metabolized
8 | CN1CCN(CC/C=C2/c3ccccc3Sc3ccc(S(=O)(=O)N(C)C)cc32)CC1 [THIOTHIXENE] | Compound metabolized | – | Compound NOT metabolized | – | Compound metabolized | Compound NOT metabolized | Compound metabolized | Compound metabolized | Compound metabolized | Compound metabolized | Compound metabolized | – | Compound metabolized | Compound metabolized | Compound metabolized | – | – | Compound metabolized | –
9 | CS(=O)(=O)O.O.O.O.O=C1Cc2cc(CCN3CCN(c4nsc5ccccc45)CC3)c(Cl)cc2N1 [ZIPRASIDONE MESYLATE] | Compound NOT metabolized | – | Compound metabolized | – | Compound NOT metabolized | Compound NOT metabolized | Compound metabolized | Compound NOT metabolized | Compound metabolized | Compound NOT metabolized | Compound metabolized | – | Compound metabolized | Compound metabolized | Compound metabolized | – | – | Compound NOT metabolized | –
